Tests used:
[1] = test system: ddY-mice; test: Lipids lowering effect on ddY-mice; type: in vivo; details: male ddY-mice, oral dose 32 mg/kg, 2 hr after administration, percent relative to baseline (0 hr); for Cholesterol (% of 0 hr) 2 hr: plasma total-cholesterol; for Triglyceride (% of 0 hr) 2 hr: plasma triglyceride
Source text: Test 2: Lipids Lowering Effect on ddY-Mice
Male ddy-mice were housed in temperature- and humidity-controlled rooms and fed with laboratory chow. The animals were randomized according to their body weight and deprived of food just before the experiment. A blood sample (baseline blood sample) was collected from the retro orbital venous plexus before administration of the test drug, and then the animals were orally dosed with the test drug in a vehicle (aqueous solution of 0.5% methylcellulose). Blood samples were drawn at 2 hours after drug administration for the measurement of cholesterol and triglyceride.
Plasma total-cholesterol and plasma triglyceride were determined by conventional enzyme-methods using commercially available kits. The cholesterol CII-Test Wako (Wako Pure Chemical Industries, Ltd.) was used for the measurement of cholesterol, and the triglyceride E-test Wako (Wako Pure Chemical Industries, Ltd.) was used for the measurement of triglyceride.
Lipids lowering effects were shown in percent relative to the baseline level (level at 0 hr).

[2] = test system: Apo B secretion; test: Measurement of inhibition of Apo B secretion (HepG2 cells, ELISA); type: cell-based; details: 15-hour incubation, 0.1% DMSO treated cells as controls; for inhibition at 1 µM: Homo sapiens, 10^−6 M
Experimental: Test 1: Measurement of Inhibition of Apo B Secretion
HepG2 cells were seeded in Eagles medium containing 10% fetal calf serum (FCS) at a density of 30000 cells/well in 96-well plates and allowed to grow for 3 days before treatment. At this time, the medium was replaced with fresh medium containing 0.1% dimethyl sulfoxide (DMSO) and the indicated concentrations of a test compound. After 15-hour incubation, the amount of Apo B and Apo AI accumulated in the media was determined by ELISA.
The assay was carried out at room temperature. A flat bottomed micro ELISA plate (manufactured by Nunc) was coated with an anti Apo B monoclonal antibody solution ([…] in 0.05% carbonate buffer, pH 9.6) by adding the antibody solution at a volume of 100 μl per well. After 1-hour incubation on a plate mixer, the unbound materials were removed by washing the well 3 times with a washing buffer (phosphate buffered saline, pH 7.2 containing 0.1% bovine serum albumin and 0.05% Tween-20). Then 20 μl of […] and 100 μl of a solution of peroxidase coupled anti Apo B antibody were added. After 1-hour incubation on a plate mixer, washing was performed 3 times to remove the unbound materials. A freshly prepared substrate solution (2.5 mg/ml ortho-phenylene diamine and 0.018% H2Oz in 0.11 M Na2HPO4-0.044 M sodium citrate buffer, pH 5.4) at a volume of 200 μl was then added to each well. After 20-minute incubation, the enzyme reaction was terminated by adding 50 μl of 0.5 M sulfuric acid. Absorbance of each well was determined at 490 nm using a microplate reader. Apo B concentration was calculated from a standard curve generated from purified Apo B standard that was run in parallel in the same plate. Inhibition of Apo B secretion by the test compound is calculated taking […] treated cells as controls.
Measurement of Apo AI was performed similar to that of Apo B, except for diluting the sample 11-fold with a dilution buffer (phosphate buffered saline, pH 7.2 containing 0.5% bovine serum albumin and 0.05% Tween-20). […]

Compound | Cholesterol (% of 0 hr) 2 hr [1] | Triglyceride (% of 0 hr) 2 hr [1] | Inhibition of Apo B secretion at 10^−6 M (%) [2] | inhibition at 1 µM [2]
O=C(Cc1ccccn1)Nc1ccc(NC(=O)c2ccccc2-c2ccc(C(F)(F)F)cc2)cc1 [Example 65, N-{4-[(2-pyridinylacetyl)amino]phenyl]-4′-(trifluoromethyl)-1,1′-biphenyl-2-carboxamide] | 83 % of 0 hr | 36 % of 0 hr | 92.2% | –
O=C(Nc1ccc(NCCc2ccccn2)cc1)c1ccccc1-c1ccc(C(F)(F)F)cc1 [Example 59, N-(4-{[2-(2-pyridinyl)ethyl]amino}phenyl)-4′-(trifluoromethyl)-1,1′-biphenyl-2-carboxamide] | 77 % of 0 hr | 15 % of 0 hr | – | –
Nc1cccc(CCCc2ccc(NC(=O)c3ccccc3-c3ccc(C(F)(F)F)cc3)cc2)n1 [Example 44, N-{4-[3-(6-amino-2-pyridinyl)propyl]phenyl}-4′-(trifluoromethyl)-1,1′-biphenyl-2-carboxamide] | – | – | – | 100%
O=C(Nc1ccc(CCCc2ccccn2)cc1)c1ccccc1-c1ccc(C(F)(F)F)cc1 [Example 25, N-{4-[3-(2-pyridinyl)propyl]phenyl}-4′-(trifluoromethyl)-1,1′-biphenyl-2-carboxamide] | 78 % of 0 hr | 23 % of 0 hr | – | –
O=C(Nc1ccc(NCCc2ccccn2)cc1)c1ccccc1Nc1cccc(C(F)(F)F)c1 [Example 64, N-(4-{[2-(2-pyridinyl)ethyl]amino}phenyl)-2-[3-(trifluoromethyl)-anilino]benzamide] | – | – | – | 100%
